In ChEMBL document CHEMBL1201862, “PubChem BioAssay data set” (2004):
Blank lines part the entries; values can stand above or below the compound they belong to. Active and inactive are the calls of the source.

How the values were obtained:
[1] = molecular target: Voltage-gated N-type calcium channel alpha-1B subunit/Amyloid beta A4 precursor protein-binding family A member 1 (Homo sapiens, UniProt Q00975+Q02410); format: protein assay
Troponin, cardiac muscle = Troponin, cardiac muscle (Homo sapiens, UniProt P19429+P45379+P63316); test: compounds desensitizing RTF to calcium – biochemical, fluorescence, cardiac regulated thin filaments, triplicate IC50, dose response (AID 504742); format: protein-complex assay
HeLa = test: viability loss in HeLa cells – cell-based, 24 h, cherry-picked samples, cytotoxicity control, dose response (AID 504726); format: functional; details: Homo sapiens;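 also: potency for cytotoxicity as loss of luminescence signal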
[2] = molecular target: T1, Rac GTPase-activating protein 1 (Homo sapiens, UniProt Q9H0H5); test: blockers of MgcRacGAP-driven Rac1 GTP hydrolysis – biochemical, ADP Hunter fluorescence, primary and confirmatory, confirmation (AID 624330); format: functional
T1 sequence (Q9H0H5 whole entry): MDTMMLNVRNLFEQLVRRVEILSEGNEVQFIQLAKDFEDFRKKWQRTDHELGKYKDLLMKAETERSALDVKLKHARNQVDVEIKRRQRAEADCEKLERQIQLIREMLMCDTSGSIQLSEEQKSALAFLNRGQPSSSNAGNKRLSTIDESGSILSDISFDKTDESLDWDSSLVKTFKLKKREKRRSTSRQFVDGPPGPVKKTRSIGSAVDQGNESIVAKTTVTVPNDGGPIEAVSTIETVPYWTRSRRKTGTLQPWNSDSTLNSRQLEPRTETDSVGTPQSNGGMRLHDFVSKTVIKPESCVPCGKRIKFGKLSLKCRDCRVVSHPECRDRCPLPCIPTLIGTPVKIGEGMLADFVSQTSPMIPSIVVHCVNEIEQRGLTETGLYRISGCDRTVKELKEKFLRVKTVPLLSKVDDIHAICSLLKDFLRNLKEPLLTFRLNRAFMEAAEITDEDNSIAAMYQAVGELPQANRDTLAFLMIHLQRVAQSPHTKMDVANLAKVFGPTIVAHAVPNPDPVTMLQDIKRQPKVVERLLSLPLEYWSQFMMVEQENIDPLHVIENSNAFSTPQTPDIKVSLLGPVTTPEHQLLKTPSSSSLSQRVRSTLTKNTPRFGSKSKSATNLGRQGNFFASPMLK

[3] = NIH-3T3 fibroblast cytotoxicity, dose response, cytotoxicity control, cell-based, fluorescence, Alamar Blue, secondary assay (AID 2327); format: functional;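 also: NIH-3T3 mouse fibroblasts cultured with fluconazole at 8 µg/mL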
[4] = molecular target: Polyadenylate-binding protein 1 (Homo sapiens, UniProt P11940); test: MLLE binding blockers, Cy5 peptide tracer – biochemical, fluorescence polarization, Cy5-PAM2 peptide, secondary, miRNA deadenylation inhibitor project, dose response (AID 602260); format: functional; details: read-out: IC50_Mean
Polyadenylate-binding protein 1, sequence (P11940 whole entry): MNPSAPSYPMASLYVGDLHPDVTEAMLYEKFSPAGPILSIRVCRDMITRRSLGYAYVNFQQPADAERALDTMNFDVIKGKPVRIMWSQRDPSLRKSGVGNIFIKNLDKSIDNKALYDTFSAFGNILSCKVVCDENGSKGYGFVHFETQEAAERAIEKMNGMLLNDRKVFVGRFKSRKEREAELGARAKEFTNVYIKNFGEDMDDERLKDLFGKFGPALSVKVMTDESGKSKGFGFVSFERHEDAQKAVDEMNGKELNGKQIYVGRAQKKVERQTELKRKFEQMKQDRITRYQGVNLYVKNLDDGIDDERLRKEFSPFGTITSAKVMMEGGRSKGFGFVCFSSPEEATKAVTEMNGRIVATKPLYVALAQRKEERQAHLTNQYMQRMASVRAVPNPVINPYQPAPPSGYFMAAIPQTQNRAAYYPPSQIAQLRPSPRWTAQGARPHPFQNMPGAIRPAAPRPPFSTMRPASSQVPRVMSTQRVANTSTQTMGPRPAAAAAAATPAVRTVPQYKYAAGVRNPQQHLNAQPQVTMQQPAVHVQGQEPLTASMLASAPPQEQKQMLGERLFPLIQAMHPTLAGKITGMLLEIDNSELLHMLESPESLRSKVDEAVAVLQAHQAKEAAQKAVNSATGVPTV

[5] = molecular target: Glucose-6-phosphate 1-dehydrogenase (Homo sapiens, UniProt P11413); test: inhibition of Homo sapiens G6PD, dose series – biochemical, fluorescence, selectivity assay for P. falciparum G6PD inhibitor project, dose response (AID 504792); format: functional
Glucose-6-phosphate 1-dehydrogenase, sequence (P11413 whole entry): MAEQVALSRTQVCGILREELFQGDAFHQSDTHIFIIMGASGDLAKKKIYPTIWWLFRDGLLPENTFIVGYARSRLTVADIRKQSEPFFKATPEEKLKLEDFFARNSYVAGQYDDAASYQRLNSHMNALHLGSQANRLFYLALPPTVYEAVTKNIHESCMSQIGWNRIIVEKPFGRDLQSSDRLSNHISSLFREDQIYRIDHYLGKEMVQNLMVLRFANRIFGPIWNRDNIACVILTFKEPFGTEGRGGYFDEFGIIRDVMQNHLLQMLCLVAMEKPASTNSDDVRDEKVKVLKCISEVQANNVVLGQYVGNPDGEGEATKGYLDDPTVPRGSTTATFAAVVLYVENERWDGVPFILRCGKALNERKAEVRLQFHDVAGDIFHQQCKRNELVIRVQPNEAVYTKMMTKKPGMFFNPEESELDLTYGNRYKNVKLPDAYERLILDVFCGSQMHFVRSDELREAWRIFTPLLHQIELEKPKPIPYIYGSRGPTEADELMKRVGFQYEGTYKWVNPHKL

[6] = molecular target: T2, Alkaline phosphatase, tissue-nonspecific isozyme (Homo sapiens, UniProt P05186); test: TNAP enzyme inhibition by screening hits, dose response, selectivity assay for mouse IAP inhibitor project, biochemical, human TNAP, uHTS hits (AID 488906); format: functional
T2 sequence (P05186 whole entry): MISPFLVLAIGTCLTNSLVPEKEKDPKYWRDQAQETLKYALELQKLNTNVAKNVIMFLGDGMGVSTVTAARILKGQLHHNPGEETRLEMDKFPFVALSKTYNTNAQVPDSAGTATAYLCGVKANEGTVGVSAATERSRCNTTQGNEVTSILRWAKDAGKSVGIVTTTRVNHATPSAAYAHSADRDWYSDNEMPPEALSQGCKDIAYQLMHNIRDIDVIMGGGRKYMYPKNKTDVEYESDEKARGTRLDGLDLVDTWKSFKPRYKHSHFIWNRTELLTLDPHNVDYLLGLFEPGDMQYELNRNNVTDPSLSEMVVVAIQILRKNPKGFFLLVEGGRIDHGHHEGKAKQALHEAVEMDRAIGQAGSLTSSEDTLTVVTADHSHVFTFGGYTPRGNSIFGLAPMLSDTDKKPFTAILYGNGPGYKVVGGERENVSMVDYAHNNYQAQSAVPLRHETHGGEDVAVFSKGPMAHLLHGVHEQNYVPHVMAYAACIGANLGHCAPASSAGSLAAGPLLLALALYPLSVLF

[7] = molecular target: T3, 1-phosphatidylinositol 4,5-bisphosphate phosphodiesterase beta-3 (Homo sapiens, UniProt Q01970); test: Fluorescence-based biochemical high throughput dose response assay to identify inhibitors of phospholipase C isozymes (PLC-B3).
T3 sequence (Q01970 whole entry): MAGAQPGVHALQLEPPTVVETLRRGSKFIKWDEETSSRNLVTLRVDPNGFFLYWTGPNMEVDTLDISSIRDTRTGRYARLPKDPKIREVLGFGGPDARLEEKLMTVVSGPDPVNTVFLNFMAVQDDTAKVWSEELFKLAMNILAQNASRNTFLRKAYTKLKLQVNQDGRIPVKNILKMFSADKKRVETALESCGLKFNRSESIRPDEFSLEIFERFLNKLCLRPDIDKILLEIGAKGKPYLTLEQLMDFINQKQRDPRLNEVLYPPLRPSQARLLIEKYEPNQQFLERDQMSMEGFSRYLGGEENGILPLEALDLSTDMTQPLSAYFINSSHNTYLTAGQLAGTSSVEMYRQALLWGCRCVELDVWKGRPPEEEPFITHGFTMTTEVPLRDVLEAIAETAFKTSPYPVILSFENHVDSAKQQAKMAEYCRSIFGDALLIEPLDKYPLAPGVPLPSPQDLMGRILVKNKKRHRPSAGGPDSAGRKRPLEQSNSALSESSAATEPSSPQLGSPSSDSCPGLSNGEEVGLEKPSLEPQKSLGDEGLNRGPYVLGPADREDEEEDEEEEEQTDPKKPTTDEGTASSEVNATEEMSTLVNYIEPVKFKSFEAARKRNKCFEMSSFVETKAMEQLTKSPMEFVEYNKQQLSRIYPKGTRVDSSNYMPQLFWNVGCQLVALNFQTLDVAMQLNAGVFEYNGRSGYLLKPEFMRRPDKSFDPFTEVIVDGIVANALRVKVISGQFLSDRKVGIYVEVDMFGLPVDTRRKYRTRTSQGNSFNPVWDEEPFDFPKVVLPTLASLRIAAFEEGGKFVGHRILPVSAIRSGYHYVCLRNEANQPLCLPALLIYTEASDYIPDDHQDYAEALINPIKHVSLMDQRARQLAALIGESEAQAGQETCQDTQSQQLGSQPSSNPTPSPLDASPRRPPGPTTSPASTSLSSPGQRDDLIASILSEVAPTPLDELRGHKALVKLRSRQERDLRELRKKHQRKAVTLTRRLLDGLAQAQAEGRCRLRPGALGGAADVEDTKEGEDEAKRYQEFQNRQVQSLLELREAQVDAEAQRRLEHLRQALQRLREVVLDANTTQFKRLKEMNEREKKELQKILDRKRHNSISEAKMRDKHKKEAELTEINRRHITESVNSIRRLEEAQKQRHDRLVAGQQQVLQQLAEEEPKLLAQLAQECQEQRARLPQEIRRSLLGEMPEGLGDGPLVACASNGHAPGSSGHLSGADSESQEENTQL

Voltage-gated N-type calcium channel alpha-1B subunit/Amyloid beta A4 precursor protein-binding family A member 1, sequence (Q00975 whole entry): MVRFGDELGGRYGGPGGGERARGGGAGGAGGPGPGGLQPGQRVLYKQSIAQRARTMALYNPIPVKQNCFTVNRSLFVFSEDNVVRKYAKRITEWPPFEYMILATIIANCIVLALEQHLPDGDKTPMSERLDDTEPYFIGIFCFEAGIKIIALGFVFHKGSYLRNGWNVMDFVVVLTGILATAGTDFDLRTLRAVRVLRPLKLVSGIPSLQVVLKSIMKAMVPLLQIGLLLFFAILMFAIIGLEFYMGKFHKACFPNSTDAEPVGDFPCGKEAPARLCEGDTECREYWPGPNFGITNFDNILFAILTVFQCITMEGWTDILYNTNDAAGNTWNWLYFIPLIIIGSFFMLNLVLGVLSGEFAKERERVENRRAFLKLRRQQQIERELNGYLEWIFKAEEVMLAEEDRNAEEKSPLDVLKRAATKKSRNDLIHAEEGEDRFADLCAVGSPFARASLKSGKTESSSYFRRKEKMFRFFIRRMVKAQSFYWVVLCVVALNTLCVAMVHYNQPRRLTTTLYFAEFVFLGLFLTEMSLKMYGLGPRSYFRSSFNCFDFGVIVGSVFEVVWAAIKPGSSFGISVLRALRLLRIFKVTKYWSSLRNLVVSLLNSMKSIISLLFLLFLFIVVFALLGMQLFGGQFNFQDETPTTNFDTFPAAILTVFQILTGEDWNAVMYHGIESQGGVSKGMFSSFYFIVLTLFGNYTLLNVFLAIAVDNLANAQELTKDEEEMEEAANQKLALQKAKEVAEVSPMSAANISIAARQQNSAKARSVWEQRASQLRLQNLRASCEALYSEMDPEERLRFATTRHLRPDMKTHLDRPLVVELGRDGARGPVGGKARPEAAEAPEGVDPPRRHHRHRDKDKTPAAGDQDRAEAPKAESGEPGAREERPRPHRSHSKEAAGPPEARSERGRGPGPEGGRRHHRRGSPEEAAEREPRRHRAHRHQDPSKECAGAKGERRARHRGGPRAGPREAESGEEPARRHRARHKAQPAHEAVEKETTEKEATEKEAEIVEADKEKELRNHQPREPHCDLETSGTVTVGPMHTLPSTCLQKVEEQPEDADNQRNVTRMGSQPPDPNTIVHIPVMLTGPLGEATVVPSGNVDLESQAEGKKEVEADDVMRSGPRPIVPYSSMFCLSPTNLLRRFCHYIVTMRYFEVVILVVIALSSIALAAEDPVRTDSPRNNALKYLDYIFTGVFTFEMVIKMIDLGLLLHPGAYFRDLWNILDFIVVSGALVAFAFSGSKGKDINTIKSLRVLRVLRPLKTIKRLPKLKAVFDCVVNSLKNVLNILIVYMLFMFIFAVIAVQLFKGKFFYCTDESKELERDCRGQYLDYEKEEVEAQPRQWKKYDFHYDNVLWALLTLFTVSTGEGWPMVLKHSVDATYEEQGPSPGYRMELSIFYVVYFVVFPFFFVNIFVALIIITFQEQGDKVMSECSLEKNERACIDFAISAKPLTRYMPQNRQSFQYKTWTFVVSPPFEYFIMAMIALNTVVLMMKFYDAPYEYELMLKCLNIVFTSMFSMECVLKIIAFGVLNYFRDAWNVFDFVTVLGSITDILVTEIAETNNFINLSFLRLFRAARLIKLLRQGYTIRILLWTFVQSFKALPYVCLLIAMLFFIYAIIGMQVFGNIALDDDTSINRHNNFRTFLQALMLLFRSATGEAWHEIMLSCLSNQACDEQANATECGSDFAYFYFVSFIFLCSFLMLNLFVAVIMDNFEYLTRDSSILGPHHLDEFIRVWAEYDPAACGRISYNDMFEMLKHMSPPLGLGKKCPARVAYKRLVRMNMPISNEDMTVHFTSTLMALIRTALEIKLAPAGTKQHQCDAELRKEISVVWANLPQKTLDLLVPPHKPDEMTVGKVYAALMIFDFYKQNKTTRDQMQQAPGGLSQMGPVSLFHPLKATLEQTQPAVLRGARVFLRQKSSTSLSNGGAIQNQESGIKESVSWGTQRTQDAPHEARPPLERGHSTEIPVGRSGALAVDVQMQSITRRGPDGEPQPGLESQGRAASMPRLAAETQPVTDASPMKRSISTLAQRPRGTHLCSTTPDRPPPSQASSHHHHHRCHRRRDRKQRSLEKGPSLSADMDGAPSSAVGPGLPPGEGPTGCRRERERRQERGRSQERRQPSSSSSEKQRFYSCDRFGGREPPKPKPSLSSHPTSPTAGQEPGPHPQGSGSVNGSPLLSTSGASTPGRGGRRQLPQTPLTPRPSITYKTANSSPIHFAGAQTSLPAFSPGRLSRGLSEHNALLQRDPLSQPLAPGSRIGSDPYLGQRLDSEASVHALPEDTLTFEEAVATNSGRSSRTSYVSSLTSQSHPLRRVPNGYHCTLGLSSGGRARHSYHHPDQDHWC
Voltage-gated N-type calcium channel alpha-1B subunit/Amyloid beta A4 precursor protein-binding family A member 1, sequence (Q02410 whole entry): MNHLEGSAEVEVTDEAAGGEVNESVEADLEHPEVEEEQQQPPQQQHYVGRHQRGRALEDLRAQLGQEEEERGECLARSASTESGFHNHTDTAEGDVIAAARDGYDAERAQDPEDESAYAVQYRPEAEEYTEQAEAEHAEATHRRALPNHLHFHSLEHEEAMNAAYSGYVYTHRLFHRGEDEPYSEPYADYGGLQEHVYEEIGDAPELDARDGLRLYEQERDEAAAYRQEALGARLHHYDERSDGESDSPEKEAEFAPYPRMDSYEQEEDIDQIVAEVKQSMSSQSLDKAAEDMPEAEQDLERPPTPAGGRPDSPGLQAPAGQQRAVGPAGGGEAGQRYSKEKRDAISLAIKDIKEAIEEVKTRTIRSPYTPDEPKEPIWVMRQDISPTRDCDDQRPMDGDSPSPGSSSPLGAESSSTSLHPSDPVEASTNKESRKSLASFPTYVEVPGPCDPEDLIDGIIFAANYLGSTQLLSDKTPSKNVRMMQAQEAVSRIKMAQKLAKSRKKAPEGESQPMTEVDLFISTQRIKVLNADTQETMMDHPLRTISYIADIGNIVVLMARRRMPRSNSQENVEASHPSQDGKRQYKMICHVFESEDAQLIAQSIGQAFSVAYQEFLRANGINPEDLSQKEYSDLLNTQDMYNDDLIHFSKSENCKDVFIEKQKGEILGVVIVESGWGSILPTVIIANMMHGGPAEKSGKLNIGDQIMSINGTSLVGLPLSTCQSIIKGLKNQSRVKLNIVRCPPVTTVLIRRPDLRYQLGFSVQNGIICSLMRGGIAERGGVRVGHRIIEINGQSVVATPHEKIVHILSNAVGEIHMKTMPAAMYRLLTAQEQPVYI

Compound: O=C(O)c1cc(N2N=C(C(F)(F)F)/C(=C/C=C/c3ccco3)C2=O)ccc1Cl
- IC50 [1]: 11.7 µM (active)
- IC50 (Troponin, cardiac muscle): > 2.65 µM (active)
- AC50 (HeLa): 24.9 µM (active)
- IC50 [2]: 10.6 µM (active)

Compound: CNCc1ccccc1Sc1ccc(O)c(O)c1
- EC50 [3]: > 150 µM (inactive)
- IC50 [4]: > 66 µM (inactive)

Compound: Cc1cc(C)c(S(=O)(=O)Nc2cc(SCC(=O)O)c(O)c3ccccc23)cc1C
- IC50 [5]: 8.73 µM (active)

- IC50 [6]: 76.1 µM (active)
- IC50 [7]: > 122 µM (inactive)
Compound: O=C(/C=C/c1ccco1)NC(=S)Nc1cccc(C(=O)O)c1
